Source: US10906946B2, “Thrombin inhibitors” (priority 2015, dated 2021)
Peptide text beside a SMILES is read from it.

Experiments:
thrombin = molecular target: T1, thrombin (Homo sapiens, UniProt P00734); test: Cleavage of peptide by thrombin (RP-HPLC, ESI-MS); type: biochemical; conditions: peptide incubated with thrombin (30:1)
T1 construct: residues in the termini of the light chain; and in the autolysis loop and C-terminus of the heavy chain; purchased Chemo-Sero-Therapeutic Research Institute (Kaketsuken, Japan), as a gift, not bought
Protocol: A. Evaluation of avathrin cleavage by thrombin by HPLC chromatograms. Avathrin (150 μM) was incubated with thrombin (5 μM) for various times and the reaction mixtures were separated using RP-HPLC; the masses of the cleavage products were analyzed with ESI-MS. At 0 min (upper panel), a single peak corresponding to full length avathrin (mass 3139 Da) was identified. At 120 min (middle panel), two new peaks corresponding to N-terminal cleavage product (^1[…]^10 of SEQ ID NO: 1; mass 982 Da) and C-terminal cleavage product ([…] (SEQ ID NO: 4); mass 2176 Da) were identified in addition to avathrin peak. At 600 min (lower panel), two peaks corresponding to the N- and C-terminal cleaved products were observed while avathrin peak was not observed, indicating complete cleavage. B. Time-dependent cleavage of avathrin by thrombin. Relative percentages of avathrin, its N- and C-terminal cleavage products were quantified by calculating areas under the curve. Each data point is the mean±S.D. of at least three independent experiments. C. Effect of thrombin cleavage on inhibitory properties of avathrin. Avathrin was incubated with thrombin (0.81 nM) for up to 36 h, and assayed at different time points for its ability to inhibit thrombin amidolytic activity on the chromogenic substrate S2238. […]
Thrombin amidolytic activity assays for all peptides were performed in 96-wells microtiter plates in 50 mM Tris buffer (pH 7.4) containing 100 mM NaCl and 1 mg/ml bovine serum albumin. […] The rates of formation of p-nitroaniline were followed by measuring the absorbance at 405 nm for 10 min with a Tecan InfinitePro M200 microplate reader from Tecan (Männedorf, Switzerland). […] To measure the inhibitory constants, different concentrations of S2238 were used and the residual velocities were determined using the Morrison's tight binding equation. Inhibition of thrombin fibrinogenolytic activity of peptides were tested by measuring absorbance at 650 nm using a Sunrise microplate reader from Tecan (Männedorf, Switzerland) as described previously [Koh C Y, et al., J Biol Chem 282: 29101-13 (2007)]. […] Effects of avathrin on the amidolytic activities of these serine proteases were determined using respective chromogenic substrates. […] After different incubation times, reactions were quenched with 1% TFA (pH 1.8) and loaded onto a Jupiter Proteo column (4 μm, 90 Å, 100×1.0 mm) attached to a Dionex nano-HPLC system from Thermo Fisher Scientific (Waltham, Mass., USA) and eluted using an acetonitrile gradient with 0.05% TFA and 99.95% MilliQ water as eluent A and 0.05% TFA, 19.95% MilliQ water and 80% ACN as eluent B. Masses of all peaks were measured to identify cleavage products, which were subsequently quantified by integrating the peaks and calculating the area under the curves. […]

human α-thrombin = molecular target: T2, human α-thrombin (Homo sapiens, UniProt P00734); test: Thrombin amidolytic activity assay with chromogenic substrate S2238; type: biochemical
T2 construct: residues in the termini of the light chain; purchased Chemo-Sero-Therapeutic Research Institute (Kaketsuken, Japan), as a gift, not bought
Outline: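 Run in 50 mM Tris pH 7.4, 100 mM NaCl, 1 mg/ml BSA; p-nitroaniline release from S2238 monitored at 405 nm for 10 min. IC50 and Hill coefficients from dose-response fits; inhibition constants from varied S2238 concentrations using Morrison tight-binding equation.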

blood = test: Anti-coagulation effect of peptides in blood tubes (visual clot formation); set-up: species or system human (healthy volunteers); conditions: room temperature
Protocol: (§1) Individual peptides are dissolved in phosphate buffered saline to prepare 10× peptide solutions (ie. concentrations of peptides are 10 times higher than the final concentrations at which they are to be tested). 0.3 ml of the 10× peptide solutions are placed in blood tubes without any additives. Blood was drawn from healthy volunteers using syringes and immediately transferred to a 50 ml conical centrifuge tube (Falcon tube) before pipetting 2.7 ml of the blood into blood tubes with peptide solutions. Final concentrations of peptides are as stated in Table 5 and 6.
Blood tubes with various peptides at different concentrations were left standing at room temperature until tested at designated times. At different time points, tubes were inverted several times and visually inspected for insoluble materials as indications of clot formation.

[1] = test system: platelets (ADP-induced platelet aggregation); test: Preservation of platelet function in blood tubes (Multiplate, ADP-induced platelet aggregation); type: cell-based, human (healthy volunteers); conditions: ADP agonist
Protocol: as §1
Blood tubes with various peptides at different concentrations were left standing at room temperature until tested at designated times. At different time points, tubes were inverted several times and blood samples were taken out for platelet aggregation tests using a Multiplate® Platelet aggregometer with adenosine diphosphate (ADP) as agonist according to manufacturer's recommended protocols.

SMILES | time to complete cleavage by thrombin (thrombin; listed as K10β-avathrin) [h] | fold gain in activity compared with avathrin (human α-thrombin) [fold] | Hill slope of thrombin amidolytic inhibition (human α-thrombin; 0 min pre-incubation where stated) | IC50 (human α-thrombin; IC50 of inhibition of thrombin amidolytic activity, thrombin 0.81 nM, S2238 100 μM, without pre-incubation (0 min) where stated) [nM] | Hill Slope (human α-thrombin; Table 2) | Time to observe clot formation (blood; final concentration 75 micromolar) [h] | Time to observe clot formation (blood; final concentration 150 micromolar) [h] | Time to observe clot formation (blood; final concentration 300 micromolar) [h] | Multiplate AUC (U) ([1]; 1.5 h, peptide 150 μM) | Multiplate AUC (U) ([1]; 1.5 h, peptide 300 μM) | Multiplate AUC (U) ([1]; 4 h, peptide 150 μM) | Multiplate AUC (U) ([1]; 4 h, peptide 300 μM) | Multiplate AUC (U) ([1]; 24 h, peptide 150 μM) | Multiplate AUC (U) ([1]; 24 h, peptide 300 μM) | Multiplate AUC (U) ([1]; 48 h, peptide 300 μM) | time to complete cleavage by thrombin (thrombin) [h]
CC[C@H](C)[C@H](NC(=O)[C@H](CCCNC(=N)N)NC(=O)[C@@H]1CCCN1C(=O)[C@@H](NC(=O)[C@H](C)NC(=O)[C@@H](NC(=O)[C@H](CCC(N)=O)NC(=O)[C@H](Cc1c[nH]cn1)NC(=O)CNC(=O)CNC(=O)[C@@H](N)CO)[C@@H](C)O)C(C)C)C(=O)N[C@@H](CO)C(=O)N[C@@H](CCCCN)C(=O)N[C@@H](CCC(N)=O)C(=O)NCC(=O)N[C@@H](CC(C)C)C(=O)NCC(=O)NCC(=O)N[C@@H](CC(=O)O)C(=O)N[C@@H](Cc1ccccc1)C(=O)N[C@@H](CCC(=O)O)C(=O)N[C@@H](CCC(=O)O)C(=O)N[C@H](C(=O)N1CCC[C@H]1C(=O)N[C@@H](CO)C(=O)N[C@@H](CC(=O)O)C(=O)N[C@@H](CCC(=O)O)C(=O)N[C@H](C(=O)N[C@H](C(=O)N[C@@H](CCC(=O)O)C(=O)O)[C@@H](C)CC)[C@@H](C)CC)[C@@H](C)CC [Peptide K10R] (H-SGGHQTAVPRISKQGLGGDFEEIPSDEIIE-OH; N-terminus and C-terminus assumed) | 3 | 5 | 1.10±0.01 | 1.15 ± 0.45 | 1.10 ± 0.01 | – | – | – | – | – | – | – | – | – | – | –
CC[C@H](C)[C@H](NC(=O)[C@H](C)NC(=O)[C@H](CCC(=O)O)NC(=O)[C@H](Cc1ccccc1)NC(=O)[C@H](CC(=O)O)NC(=O)[C@H](Cc1ccccc1)NC(=O)[C@@H]1CCCN1C(=O)[C@@H]1CCCN1C(=O)[C@H](C)NC(=O)[C@@H](NC(=O)[C@H](CCCCN)NC(=O)[C@H](Cc1c[nH]cn1)NC(=O)[C@H](CCSC)NC(=O)[C@H](CCCCN)NC(=O)[C@@H]1CCCN1C(=O)[C@H](CCC(=O)O)NC(=O)[C@H](C)NC(=O)[C@@H](NC(=O)[C@H](CC(=O)O)NC(=O)CNC(=O)[C@H](CCC(N)=O)NC(=O)[C@H](CC(=O)O)NC(=O)[C@@H](N)CO)C(C)C)[C@@H](C)O)C(=O)N1CCC[C@H]1C(=O)N[C@@H](CCC(=O)O)C(=O)N[C@@H](CCC(=O)O)C(=O)N[C@@H](Cc1ccc(O)cc1)C(=O)N[C@@H](CC(C)C)C(=O)N[C@@H](CC(=O)O)C(=O)N[C@@H](CC(=O)O)C(=O)N[C@@H](CCC(=O)O)C(=O)N[C@@H](CO)C(=O)O [Variegin, reference compound] | – | – | – | – | – | 46 | 52 to 66 | 52 to 66 | 65.2 | 52.3 | 48.6 | 33.9 | 41.9 | 40.5 | 18.3 | 4
